Patent publication US20140056960A1, “Methods for Improving Fracture Healing and Bone Formation” (Imperial Innovations Limited, priority 2010, published 2014)
Entries after “also recorded” stand apart in the source; their conditions may differ. Where two headings read alike, the source gives them in different places.

What was measured:
[1] = tested on: human muscle-derived stromal cells; conditions: cited from earlier work
tibial fracture [2] = assay: murine tibial fracture model: callus mineralization (microCT) and histology after local administration at fracture site; format: in vivo, mouse; conditions: for fracture healing / callus mineralization: local, approx. 1 ng or 50 ng/kg (50 ng/ml, 20 microlitres PBS) at time of fracture and 24 hr later, day 28; for fracture healing / percentage callus mineralization: exogenous alarmin at fracture site days 0 and 1 (rmHMGB1 20 μL at 50 ng/ml), day 28 microCT
Method: Percentage callus mineralization was determined from the fracture site to 1 mm proximally (mean+/−SEM). FIG. 5. Dose response of exogenous TNF-α in vivo. 20 μL of PBS with rhTNF-α at the corresponding dose was injected at the fracture site at days 0 and 1 in C57BI/6 mice. At day 28, mice were harvested and limbs scanned by microCT in a blinded fashion. Percentage callus mineralization was determined from the fracture site to 1 mm proximally (threshold density of 350 mg/cm^3). * p<0.05, ** p<0.01. FIG. 7A. […] Percentage callus mineralization was determined from the fracture site to 1 mm proximally (mean+/−SEM). FIG. 18. […] C57BI6 mice were subjected to fracture model with addition of 20 μL of rmHMGB1 at 50 ng/ml at the fracture site at days 0 and 1 compared to controls. Addition of exogenous S100A8 or S100A9 or S100A8/9 had no effect, possibly because the fracture environment may already contain optimal amounts of S100 A8 or A9 proteins. All mice were harvested at day 28 and limbs scanned by microCT in a blinded fashion. Percentage callus mineralization was determined from the fracture site to 1 mm proximally (mean+/−SEM). […] Inflammation plays a vital role in early fracture repair^11,12. In murine models, TNF-α, IL-1 and IL-6 are expressed at the fracture site within 24 hours of injury^13,14. Biphasic expression of TNF-α and IL-1β appears to be linked to the initiation of fracture repair and later to endochondral maturation^14,15. In our murine model, callus mineralization at day 28 was enhanced when TNF-α, at a concentration of 50 ng/kg was injected locally following injury (day 0) and 24 hours later.

osteoporotic fracture = osteoporotic fracture repair in ovariectomised mice, callus mineralization by microCT; format: in vivo, mouse; conditions: for percentage callus mineralization / fracture healing: day 14, 20 μL rhTNF-α 50 ng/ml immediately post fracture and 1 day later, vs PBS
Method: FIG. 6. Addition of exogenous TNF-α accelerates osteoporotic fracture repair in vivo. 20 μL of rhTNF-α at 50 ng/ml was injected at the fracture site immediately post fracture and 1 day later. Osteoporosis was induced by ovariectomising mice 4 weeks prior to surgery. (A). At day 14, mice were harvested and limbs scanned by microCT in a blinded fashion. […] At day 28 post fracture the percentage mineralised callus volume in the three groups (normal, those that had undergone oophorectomy and oophrectomised animals treated with TNF-α) were similar. […] (B).
We have investigated the effect of adding recombinant human TNF-α at the fracture site in mice rendered osteoporotic by oophorectomy 4 weeks previously.

tibial fracture [3] = assay: murine tibial fracture model: callus mineralization (microCT) and histology after local administration at fracture site; format: in vivo, mouse
rib fracture = conditions: cited from earlier work
[4] = tested on: intramuscular bone-inducing implant; conditions: daily intra-peritoneal administration; cited from earlier work
[5] = human, in vivo, cited from earlier work
PBMCs = assay: TNF-α production by PBMCs (ELISA, 14 hours); format: cell-based, human; conditions: for TNF-α production by PBMCs: PBMCs 1*10^5/ml, 10% FCS, alarmin at indicated doses
Method: FIG. 10. […] (A) PBMCs at 1*10^5/ml were incubated in 10% fetal calf serum (FCS) with S100 A8 at indicated doses. […] (B) PBMCs at 1*10^5/ml were incubated in 10% FCS with S100 A8 at 0.5 μg/ml with the addition of either antibody to TLR4, TLR2 or isotype controls (not shown), or sRAGE over 14 hours. TNF-α levels were determined by ELISA.
FIG. 12. […] PBMCs at 1*10^5/ml were incubated in 10% FCS with S100 A8, S100 A9 or S100 A12 at the indicated doses over 14 hours. TNF-α levels were determined by ELISA.
FIG. 17. […] PBMCs at 1*10^5/ml were incubated in 10% FCS with HMGB1 or LPS at the indicated doses over 14 hours; TNF-α levels were determined by ELISA.

bone marrow cells = assay: TNF-α production by bone marrow cells from wild type, TLR-4 and MyD88 knockout mice; format: cell-based, mouse; conditions: WT, TLR-4 and MyD88 knockout bone marrow cells
Text: FIG. 11. TNF-α production by bone marrow cells from wild type (WT), TLR-4 and MyD88 knockout mice treated with murine S100A8.

IL-1β: pro-inflammatory cytokine with some osteogenic activity in vitro
bone nodule formation in vitro ([1]; cytokine alone, human specimens): does not promote bone nodule formation | alkaline phosphatase production ([1]; human muscle-derived stromal cells): increased alkaline phosphatase production

TNF-α
callus mineralization at day 28 (tibial fracture [2]; "high" dose of 5-100 μg/kg): significantly less callus mineralization | callus mineralization at day 28 (tibial fracture [2]; "low" dose of 50 pg/kg): indistinguishable from the PBS only control | fracture healing compared to PBS control (tibial fracture [2]; doses of 10 pg to 1 ng at fracture site (FIG. 5)): significantly accelerated healing | fracture healing / callus mineralization (tibial fracture [2]): effective in promoting bone formation and accelerating fracture healing; also recorded: enhanced; also recorded: significantly accelerated healing of the fracture | fracture healing / callus mineralization (tibial fracture [2]; listed as rhTNF-α): accelerate callus mineralization | percentage callus mineralization / fracture healing (osteoporotic fracture): significantly greater | percentage callus mineralization / fracture healing (osteoporotic fracture; listed as recombinant human TNF-α): significantly accelerated fracture healing | percentage mineralised callus volume (osteoporotic fracture; day 28 post fracture, normal vs oophorectomy vs oophorectomy + TNF-α): similar | 3D reconstructions of fracture site (osteoporotic fracture; rhTNF-α group vs PBS control): bridging of the fracture site with callus and ossification of the cartilaginous intermediary as well as remodelling of the ossified callus | histology of tibial fracture (tibial fracture [3]; 14 days post injury, local TNF-α 50 ng/kg body weight (1 ng/ml) in PBS): complete bridging of the fracture site by hard callus (bone) and remodelling of the fracture callus | effect at 10 fold increase beyond optimal range ([1]; 10 ng/ml): significant diminution in effect | migration and osteogenic differentiation of MDSC [1]: can migrate and differentiate upon stimulation; also recorded: clear concentration dependency; also recorded: accelerates bone formation within a narrow therapeutic window and is inhibitory at high concentrations | optimal in vitro dose [1]: 0.1 to 1 ng/mL | fracture healing (rib fracture; 40 μg/kg/day): (non significant) improvement in fracture healing | fracture healing (rib fracture; daily intra-peritoneal 400 μg/kg): impaired healing | bone formation around implant [4]: inhibited bone formation | adverse effect, highest doses administered repeatedly ([5]; sc): minor local reactions | adverse effect, highest doses administered repeatedly [5]: clinically insignificant thrombocytopaenia | single doses found safe [5]: up to 400 micrograms

B1: recombinant murine IL-10: an anti-inflammatory cytokine (protein, UniProt P18893 19-178, looked up)
Interleukin-10: SRGQYSREDNNCTHFPVGQSHMLLELRTAFSQVKTFFQTKDQLDNILLTDSLMQDFKGYLGCQALSEMIQFYLVEVMPQAEKHGPEIKEHLNSLGEKLKTLRMRLRRCHRFLPCENKSKAVEQVKSDFNKLQDQGVYKAMNEFDIFINCIEAYMMIKMKS
fracture healing as percentage mineralized callus volume (tibial fracture [3]; 14 days post fracture, administered at fracture site): inhibition of fracture healing

B2: S100A9: alarmin (protein, UniProt P06702 1-114, looked up)
Protein S100-A9: MTCKMSQLERNIETIINTFHQYSVKLGHPDTLNQGEFKELVRKDLQNFLKKENKNEKVIEHIMEDLDTNADKQLSFEEFIMLMARLTWASHEKMHEGDEGPGHHHKPGLGEGTP
fracture healing / percentage callus mineralization (tibial fracture [2]): no effect | TNF-α production by PBMCs (PBMCs): much lower effect than S100A8 | TNF-α production by PBMCs (PBMCs; listed as S100 A9): much less potent than S100 A8

B3: S100A8/9: alarmin (protein, UniProt P05109 1-93; P06702 1-114, looked up)
Protein S100-A8: MLTELEKALNSIIDVYHKYSLIKGNFHAVYRDDLKKLLETECPQYIRKKGADVWFKELDINTDGAVNFQEFLILVIKMGVAAHKKSHEESHKE
Protein S100-A9: MTCKMSQLERNIETIINTFHQYSVKLGHPDTLNQGEFKELVRKDLQNFLKKENKNEKVIEHIMEDLDTNADKQLSFEEFIMLMARLTWASHEKMHEGDEGPGHHHKPGLGEGTP
fracture healing / percentage callus mineralization (tibial fracture [2]): no effect | TNF-α production by PBMCs (PBMCs): no activity

B4: murine S100A8: murine alarmin S100A8 used on mouse bone marrow cells (protein, UniProt P27005 2-89, looked up)
Protein S100-A8: PSELEKALSNLIDVYHNYSNIQGNHHALYKNDFKKMVTTECPQFVQNINIENLFRELDINSDNAINFEEFLAMVIKVGVASHKDSHKE
receptor dependence of TNF-α production (bone marrow cells): largely dependent on TLR-4 receptor and absolutely dependent on MyD88

B5: HMGB1: alarmin; highly purified HMGB-1 (protein, UniProt P09429 1-215, looked up)
High mobility group protein B1: MGKGDPKKPRGKMSSYAFFVQTCREEHKKKHPDASVNFSEFSKKCSERWKTMSAKEKGKFEDMAKADKARYEREMKTYIPPKGETKKKFKDPNAPKRPPSAFFLFCSEYRPKIKGEHPGLSIGDVAKKLGEMWNNTAADDKQPYEKKAAKLKEKYEKDIAAYRAKGKPDAAKKGVVKAEKSKKKKEEEEDEEDEEDEEEEEDEEDEDEEEDDDDE
fracture healing (tibial fracture [2]; 1 mg/ml at fracture site at days 0 and 1, 28 days post fracture): significantly (p=0.02) accelerated healing | fracture healing / percentage callus mineralization (tibial fracture [2]): accelerated healing; also recorded: accelerates fracture healing | TNF-α production by PBMCs, HMGB1 with addition of LPS (PBMCs; HMGB1 and LPS at indicated doses): synergistic effect | TNF-α production by PBMCs (PBMCs): not pro-inflammatory in isolation in vitro | TNF-α production by PBMCs (PBMCs; listed as HMGB-1): did not lead to TNF-α production

B6: rmHMGB1: exogenous alarmin rmHMGB1 added locally at the fracture site (protein, UniProt P63158 1-215, looked up)
High mobility group protein B1: MGKGDPKKPRGKMSSYAFFVQTCREEHKKKHPDASVNFSEFSKKCSERWKTMSAKEKGKFEDMAKADKARYEREMKTYIPPKGETKKKFKDPNAPKRPPSAFFLFCSEYRPKIKGEHPGLSIGDVAKKLGEMWNNTAADDKQPYEKKAAKLKEKYEKDIAAYRAKGKPDAAKKGVVKAEKSKKKKEEEDDEEDEEDEEEEEEEEDEDEEEDDDDE
fracture healing / percentage callus mineralization (tibial fracture [2]): accelerates fracture; also recorded: improves callus mineralisation
